# Assay: Phase 1 Stage 1 clinical pharmacokinetics of SC ZA co-administered with rHuPH20
# Assay type: in vivo, human
# Procedure: A pharmacokinetic study of zoledronic acid (ZA) co-administered with rHuPH20 in human subjects was conducted. The primary objective of the study was to determine the bioavailability of zoledronic acid dosed via subcutaneous (SC) co-administration with human recombinant hyaluronidase PH20 (rHuPH20). […] The patients were administered the prescribed dosage formulations as follows: Cohorts 1-5 were administered a single subcutaneous infusion in a dosage volume of 100 ml at a rate of 3 mL/min. […] The dosing solution is administered via needle or catheter into the SC space of the left anterior thigh (midway between the anterior iliac crest and the cephalad border of the patella). For cohorts 1-5, the dosing solutions were administered by a controlled rate infusion pump at approximately 3 mL/minute. […] The dosing solutions were administered by syringe push bolus injection. […] Serum concentration of ZA was determined using a qualified LC-MS-MS assay after derivatization with diazomethane (Zhu, L S et al. (2006) Rapid Commun. […] The assay range was from 2.0 to 400 ng/mL with a lower limit of quantitation (LLOQ) at 2.0 ng/mL. […] Non-compartmental analysis was used for derivation of primary and secondary pharmacokinetic (PK) parameters. […] Summary statistics (mean, standard deviation, and median) were calculated using JMP or Microsoft Excel.
# [1] = Subj 1, ZA […] SC, inf 0.554 hr, PH20 23928 U
# [2] = Subj 8, ZA […] SC, inf 0.531 hr, PH20 22944 U
# [3] = Subj 11, ZA […] SC, inf 0.554 hr, PH20 23928 U
# [4] = Subj 16, ZA […] SC, inf 0.553 hr, PH20 23904 U
# [5] = Subj 18, ZA […] SC, inf […], PH20 23304 U
# [6] = Subj 21, ZA […] SC, inf 0.556 hr, PH20 24000 U
# [7] = Subj 25, ZA […] SC, inf 0.549 hr, PH20 23736 U
# [8] = Subj 26, ZA […] SC, inf […], PH20 23088 U
# [9] = Subj 27, ZA 0.0196 mg/kg SC, inf […], PH20 23976 U
# [10] = Subj 29, ZA 0.0339 mg/kg SC, inf 0.556 hr, PH20 24000 U
# [11] = Subj 31, ZA […] SC, inf 0.554 hr, PH20 23952 U
# [12] = Subj 32, ZA […] SC, inf 0.556 hr, PH20 24000 U
# [13] = Subj 37, ZA 0.0791 mg/kg SC, inf 0.556 hr, PH20 24000 U
# [14] = Subj 38, ZA 0.0706 mg/kg SC, inf 0.554 hr, PH20 23952 U
# [15] = Subj 39, ZA 0.0691 mg/kg SC, inf 0.552 hr, PH20 23856 U
# [16] = Subj 41, ZA 0.0653 mg/kg SC, inf […], PH20 12216 U
# [17] = Subj 46, ZA 0.0877 mg/kg SC, inf 0.276 hr, PH20 12000 U
# [18] = Subj 51, ZA […] SC, inf 0.251 hr, PH20 6024 U
smiles,measurement,setting,value
"O=P(O)(O)C(O)(Cn1ccnc1)P(=O)(O)O [ZA, 1-hydroxy-2-(1H-imidazol-1-yl)ethylidene-1,1-bisphosphonic acid]",AUC (0-inf)/D,[1],0.006638 kg·h/mL
same,CL,[1],2.511 mL/min/kg
same,Cmax/D,[1],0.001722 kg/mL
same,Vss,[1],0.44318 L/kg
same,Vz,[1],0.40861 L/kg
same,AUC (0-inf)/D,[2],0.01019 kg·h/mL
same,CL,[2],1.635 mL/min/kg
same,Cmax/D,[2],0.001772 kg/mL
same,Vss,[2],0.45621 L/kg
same,Vz,[2],0.43706 L/kg
same,AUC (0-inf)/D,[3],0.009322 kg·h/mL
same,CL,[3],1.7878 mL/min/kg
same,Cmax/D,[3],0.002073 kg/mL
same,Vss,[3],0.36447 L/kg
same,Vz,[3],0.33982 L/kg
same,AUC (0-inf)/D,[4],0.007097 kg·h/mL
same,CL,[4],2.3485 mL/min/kg
same,Cmax/D,[4],0.001739 kg/mL
same,Vss,[4],0.44893 L/kg
same,Vz,[4],0.44919 L/kg
same,AUC (0-inf)/D,[5],0.00801 kg·h/mL
same,CL,[5],2.0807 mL/min/kg
same,Cmax/D,[5],0.002012 kg/mL
same,Vss,[5],0.40254 L/kg
same,Vz,[5],0.40424 L/kg
same,AUC (0-inf)/D,[6],0.009748 kg·h/mL
same,CL,[6],1.7097 mL/min/kg
same,Cmax/D,[6],0.002152 kg/mL
same,Vss,[6],0.34316 L/kg
same,Vz,[6],0.33661 L/kg
same,AUC (0-inf)/D,[7],0.006861 kg·h/mL
same,CL,[7],2.4293 mL/min/kg
same,Cmax/D,[7],0.00176 kg/mL
same,Vss,[7],0.77861 L/kg
same,Vz,[7],1.64423 L/kg
same,AUC (0-inf)/D,[8],0.01198 kg·h/mL
same,CL,[8],1.391 mL/min/kg
same,Cmax/D,[8],0.002609 kg/mL
same,Vss,[8],0.42621 L/kg
same,Vz,[8],1.01736 L/kg
same,AUC (0-inf)/D,[9],0.006142 kg·h/mL
same,CL,[9],2.7135 mL/min/kg
same,Cmax/D,[9],0.001276 kg/mL
same,Vss,[9],0.91422 L/kg
same,Vz,[9],1.53448 L/kg
same,AUC (0-inf)/D,[10],0.007095 kg·h/mL
same,CL,[10],2.349 mL/min/kg
same,Cmax/D,[10],0.001853 kg/mL
same,Vss,[10],0.66499 L/kg
same,Vz,[10],1.76877 L/kg
same,AUC (0-inf)/D,[11],0.007665 kg·h/mL
same,CL,[11],2.1745 mL/min/kg
same,Cmax/D,[11],0.001699 kg/mL
same,Vss,[11],0.67025 L/kg
same,Vz,[11],1.66854 L/kg
same,AUC (0-inf)/D,[12],0.008441 kg·h/mL
same,CL,[12],1.9745 mL/min/kg
same,Cmax/D,[12],0.001677 kg/mL
same,Vss,[12],1.2493 L/kg
same,Vz,[12],3.76429 L/kg
same,AUC (0-inf)/D,[13],0.007838 kg·h/mL
same,CL,[13],2.1265 mL/min/kg
same,Cmax/D,[13],0.001656 kg/mL
same,Vss,[13],1.39565 L/kg
same,Vz,[13],4.2995 L/kg
same,AUC (0-inf)/D,[14],0.009027 kg·h/mL
same,CL,[14],1.8463 mL/min/kg
same,Cmax/D,[14],0.001657 kg/mL
same,Vss,[14],1.52947 L/kg
same,Vz,[14],3.90822 L/kg
same,AUC (0-inf)/D,[15],0.01052 kg·h/mL
same,CL,[15],1.584 mL/min/kg
same,Cmax/D,[15],0.002127 kg/mL
same,Vss,[15],1.20501 L/kg
same,Vz,[15],3.57183 L/kg
same,AUC (0-inf)/D,[16],0.01128 kg·h/mL
same,CL,[16],1.478 mL/min/kg
same,Cmax/D,[16],0.002159 kg/mL
same,Vss,[16],2.37143 L/kg
same,Vz,[16],5.48166 L/kg
same,AUC (0-inf)/D,[17],0.008516 kg·h/mL
same,CL,[17],1.957 mL/min/kg
same,Cmax/D,[17],0.002429 kg/mL
same,Vss,[17],1.09639 L/kg
same,Vz,[17],3.51646 L/kg
same,AUC (0-inf)/D,[18],0.009685 kg·h/mL
same,CL,[18],1.721 mL/min/kg
same,Cmax/D,[18],0.001817 kg/mL
